From patent publication US9180160B2, “Complement inhibitors for treatment of injury from intracerebral hemorrhage” (The Trustees of the University of Pennsylvania, priority 2008, dated 2015)
“Also recorded” adds a separate entry of the source.

Legend:
[1] = tested on: C57BL/6J mice subjected to ICH; test: 28-point neurological function score after ICH (autologous blood infusion); assay type: in vivo
Method: (§1) Animal Preparation and Intracerebral Infusion. Adult male C57BL/6J mice weighing 23-30 g were used. Mice were randomized to receive intraperitoneal injection of either C3aRA (1 mg/kg) (SB290157, Calbiochem, Darmstadt, Germany) diluted in PBS and DMSO (1.16% v/v), or an equal volume of vehicle (PBS and DMSO, 1.16% DMSO v/v) either 45 minutes prior to ICH induction or 6 and 12 hours after induction of ICH, followed in both cohorts by twice daily doses for 72 hours. […] Sham animals were given PBS and DMSO (1.16% v/v) in the same manner.
(§2) Mice were anesthetized with a single intraperitoneal dose of ketamine (90 mg/kg) and xylazine (5 mg/kg). Next, the mice were placed in a stereotactic frame (ASI Instruments, Inc., Warren, Mich., USA) and subjected to ICH using autologous blood infusion as previously described (Rynkowski M A et al, 2008, Nat Protoc 3: 122-128), Briefly, a 1-mm burr hole was drilled 2.3 mm lateral to the midline and 0.2 mm anterior to the bregma. Thirty μL of autologous whole blood were drawn from the tail artery into a capillary tube. A 30-gauge needle was then advanced stereotactically through the burr hole into the right striatum (coordinates: 0.2 mm anterior, 2.3 mm lateral to the bregma, 3.5 mm ventral). Using a microinfusion pump (KDS220, KD Scientific Inc., Holliston, Mass., USA), 5 μL was delivered at a rate of 1.5 μL per minute. After a 7-minute period, an additional 25 μL was delivered at a constant rate of 1.5 μL per minute. […]
(§3) Neurofunction and behavioral testing. Sensorimotor function was evaluated by means of the 28-point neurological function score, corner test and forelimb placing tests, which were performed pre-operatively and at 6, 24, 48 and 72 hour post-injury. Navigational memory was evaluated with the means of a Morris water-maze (MWM) test pre-operatively and at 72 hours post ICH. […]
Neurological function. Acute neurological deficits were assessed using a 28-point scoring system including body symmetry, gait, climbing, circling behavior, front limb symmetry, compulsory circling and whisker response. […]

[2] = tested on: C57BL/6J mice subjected to ICH; test: Corner turn test (laterality index) after ICH; assay type: in vivo; details: for corner turn test (laterality index): 1 mg/kg i.p. first at 6 h and 12 h after ICH, then twice daily for 72 hours, versus vehicle
Method: as §1
as §2, with “ventral).” for “ventral). Using a microinfusion pump (KDS220, KD Scientific Inc., Holliston, Mass., USA), 5 μL was delivered at a rate of 1.5 μL per minute. After a 7-minute period, an additional 25 μL was delivered at a constant rate of 1.5 μL per minute.”
as §3
Corner test. […] The number of right and left turns out of 10 total attempts was recorded. The laterality index (LI) and normalized LI were calculated. The laterality index (LI) was calculated for each mouse, according to the formula: LI=(Number of right turns—Number of left turns)/(Total number of turns). The LI for the day before surgery (LIBS) and each of the post surgery days was calculated and normalized using the formula: Normalized LI=(LI+2)/(LIBS+2). […]

[3] = 1 mg/kg i.p. first at 6 h and 12 h after ICH, then twice daily for 72 hours, versus vehicle
[4] = 1 mg/kg i.p. 45 minutes prior to ICH, then twice daily, 72 hours after ICH

Question: “Acetyl-Phe-[Orn-Pro-D-cyclohexylalanine-Trp-Arg] [C5aRA]” was tested. Which 28-point neurological score [1, 3] did it give?
Answer: significant improvement at 24, 48 and 72 hours

Question: And the “corner turn test (laterality index)” value [2]?
Answer: significant improvement at 48 hours

Question: For `NC(N)=NCCC[C@H](NC(=O)COCC(c1ccccc1)c1ccccc1)C(=O)O` [C3aRA], which 28-point neurological score [1, 4] is on record?
Answer: no significant deficits compared with sham animals

Question: What about the 28-point neurological score [1, 3] of the same compound?
Answer: significant improvement at 24, 48, and 72 hours; also recorded: significant improvement at 24, 48 and 72 hours

Question: What about the “corner test performance (normalized laterality index)” value [2, 4] of the same compound?
Answer: no significant deficits compared with sham animals

Question: What about the “corner turn test (laterality index)” value [2] of the same compound?
Answer: significant improvement at 48 hours
